# Columns and labels:
# rA3R [1] = target: T1, rA3R (Rattus norvegicus, UniProt P28647); assay: cAMP inhibition at rA3R (Flp-In-CHO); assay type: cell-based
# T1 construct: expressed in transfected cells; host or cells: Flp-In-CHO (ThermoFisher R75807), pcDNA5/FRT
# T1 sequence (P28647 1-320): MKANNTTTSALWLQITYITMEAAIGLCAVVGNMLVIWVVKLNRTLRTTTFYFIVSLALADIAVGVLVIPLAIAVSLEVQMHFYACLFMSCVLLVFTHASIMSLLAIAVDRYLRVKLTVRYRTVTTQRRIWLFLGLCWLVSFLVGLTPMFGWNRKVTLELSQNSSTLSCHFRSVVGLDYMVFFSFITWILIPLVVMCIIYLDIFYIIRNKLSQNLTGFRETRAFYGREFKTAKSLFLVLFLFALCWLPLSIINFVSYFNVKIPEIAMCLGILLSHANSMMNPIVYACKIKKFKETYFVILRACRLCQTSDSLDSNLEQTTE
# Excerpt: Cell lines were maintained using standard subculturing routines as guided by the European Collection of Cell Culture (ECACC) and checked annually for mycoplasma infection using an EZ-PCR mycoplasma test kit from Biological Industries (Kibbutz Beit-Haemek, Israel). To investigate the signalling properties of the rat A3R (rA3R) and mutants of the human A1R (hA1R), stable cell lines were generated using Flp-In-CHO cells (ThermoFisher - R75807). Untagged hA1R from sigNanoLuciferase (Nluc)-A1R in pcDNA3.1+ and untagged rA3R from sigNluc-A3R in pcDNA3.1 + (both gifted by Dr Steve Briddon (University of Nottingham)) were cloned into the pcDNA5/FRT expression vector (Thermo Fisher Scientific). Mutations within the hA1R were made using the QuikChange Lightening Site-Directed Mutagenesis Kit (Agilent Technologies) in accordance with the manufacturer’s instructions. Constructs for generating Goa/b interfering and scrambled peptides were generated by PCR and cloned into the BamHI/HindIII site of pcDNA3.1- as described in Gilchrist et al.[60],. Prior to the initiator codon a Kozak sequence was included for enhanced translation. The peptide sequences used were: for Goa […], for Gob […], and for the scrambled peptide […] was used. Constructs were sequenced to confirm fidelity. Flp-In-CHO cells were generated through co-transfection of the cell line with pcDNA5/FRT expression vector (Thermo Fisher Scientific) containing the WT or mutant hA1R, or rA3R, and the Flp recombinase expressing plasmid, pOG44 (Thermo Fisher Scientific), in accordance with the manufacturer’s instructions. […] CHO cell lines expressing ARs of interest (including mutants of the hA1R) were routinely cultured in Ham’s F-12 nutrient mix supplemented with 10% foetal bovine serum (FBS), at 37 °C with 5% CO2, in a humidified atmosphere.
# [2] = tested on: native presynaptic A1Rs, rat hippocampal slices; assay: Extracellular fEPSP recording, inhibition of excitatory synaptic transmission in hippocampal slices; assay type: cell-based
# Experimental: Rats were kept on a 12-hour light-dark cycle with slices made 90 min after entering the light cycle. […] The brain was removed, cut down the midline and the two sides of the brain stuck down to a metal base plate using cyanoacrylate glue. […] Slices were stored at 34 °C for 1–6 h in aCSF (1 mM MgCl2, 2 mM CaCl2) before use.
# A slice was transferred to the recording chamber, submerged in aCSF and perfused at 4–6 ml min^−1 (32 ± 0.5 °C). The slice was placed on a grid allowing perfusion above and below the tissue and all tubing was gastight (to prevent loss of oxygen). […] Field excitatory postsynaptic potentials (fEPSPs) were evoked with either an isolated pulse stimulator model 2100 (AM Systems, WA) or ISO-Flex (AMPI, Jerusalem, Israel). For fEPSPs a 10–20 min baseline was recorded at a stimulus intensity that gave 40-50% of the maximal response. […] For fEPSP slope, a 1 ms linear region after the fibre volley was measured. Extracellular recordings were made independently on two electrophysiology rigs.
# Statistical significance was tested as indicated in the text using paired or unpaired two-tailed t-tests or one-way or two-way ANOVAs with repeated measures (RM) as appropriate. Bonferroni corrections for multiple comparisons were performed. All in vitro cell signalling assay data was analysed using Prism 8.4 (Graphpad software, San Diego, CA), with all concentration-response curves being fitted using a 3 parameter logistic equation to calculate response range and IC50. All cAMP data was normalised to a forskolin concentration-response curve ran in parallel to each assay.
# [3] = target: T2, β-arrestin2 recruitment to hA3R (Homo sapiens, UniProt P0DMS8); assay: BRET β-arrestin2 recruitment to A3R, HEK 293T; assay type: cell-based
# T2 construct: expressed in transfected cells; host or cells: HEK 293T (ATCC CRL-3216), transient
# [4] = tested on: CA1 pyramidal cells (Goa / Gob signalling); assay: Whole-cell voltage-clamp, adenosine-induced outward current with intracellular G protein interfering peptides; assay type: cell-based, rat; conditions: adenosine 10 µM; control conditions
# Experimental: A slice was transferred to the recording chamber and perfused at 3 ml min^−1 with aCSF at 32 ± 0.5 °C. Slices were visualised using IR-DIC optics with an Olympus BX151W microscope (Scientifica) and a CCD camera (Hitachi). […] Voltage and current recordings were obtained using an Axon Multiclamp 700B amplifier (Molecular Devices, USA) and digitised at 20 KHz. Data acquisition and analysis was performed using pClamp 10 (Molecular Devices, USA). For voltage-clamp experiments, CA1 pyramidal cells were held at −60 mV. Peptides to interfere with G protein signalling were introduced via the patch pipette into the recorded cell.
# Drugs were made up as stock solutions (1-10 mM) and then diluted in aCSF or saline on the day of use. […] MRS1523 was purchased from Cayman Chemicals (Cambridge Bioscience Ltd., Cambridge UK). […] CA200645 and peptides for interfering with G protein signalling were obtained from Hello Bio (Bristol, UK) and were based on published sequences. […] The scrambled version was […]. […] Peptides were made up as stock solutions (2 mM) and stored at −20 °C. The stock solutions were dissolved in filtered intracellular solution just before use.
# rA3R [5] = target: T1, rA3R; assay: NanoBRET competition binding with AV039; conditions: displacement of AV039; read-out: pKi rA3R (converted)
# Experimental: Here data was fitted with the ‘two-site Ki model’, build into Prism to determine high affinity and low affinity values for the unlabelled agonists. […] BRET was measured following the addition of the Nluc substrate, Furimazine (0.1 μM).
# [6] = tested on: heart rate and mean arterial blood pressure; assay: Urethane-anaesthetised rat, heart rate and arterial blood pressure; conditions: adenosine 1 mg kg^−1 IV
# Excerpt: Anaesthesia was induced in adult male Sprague–Dawley rats (230-330 g) with isofluorane (2–4%; Piramal Healthcare). The femoral vein was catheterised for drug delivery. Anaesthesia was maintained with urethane (1.2–1.7 g kg^−1; Sigma) in sterile saline delivered via the femoral vein catheter. […] The trachea was cannulated and the femoral artery catheterised, and both were connected to pressure transducers (Digitimer) to record respiratory airflow and arterial blood pressure, respectively. Blood pressure and airflow signals were amplified using the NeuroLog system (Digitimer) connected to a micro1401 interface and acquired on a computer using Spike2 software (v7.08a; Cambridge Electronic Design). […] Airflow measurements were used to calculate: tidal volume (VT; mL; pressure sensors were calibrated with a 3 mL syringe), and respiratory frequency (f; breaths min^−1; BrPM). Minute ventilation (VE; mL min^−1) was calculated as f × VT.
# Cardiovascular and respiratory parameters were allowed to stabilise before experiments began. A1R agonists were administered by intravenous (IV) injection and the changes in HR, MAP, f, VT, and VE were measured. […] All injections were administered IV as a 350 µl·kg^-1 bolus.
# frog heart = assay: Isolated frog heart preparation, heart rate; conditions: adenosine 30 µM
# Experimental: Young adult male Xenopus leavis frogs were obtained from Portsmouth Xenopus Resource Centre. […] The animals were dissected to reveal the heart and the pericardium was carefully removed. Heart contractions were measured with a force transducer (AD instruments). Heart rate was acquired via a PowerLab 26 T (AD instruments) controlled by LabChart 7 (AD instruments). The heart was regularly washed with Ringer solution and drugs were applied directly to the heart.
# T2 sequence (P0DMS8 whole entry): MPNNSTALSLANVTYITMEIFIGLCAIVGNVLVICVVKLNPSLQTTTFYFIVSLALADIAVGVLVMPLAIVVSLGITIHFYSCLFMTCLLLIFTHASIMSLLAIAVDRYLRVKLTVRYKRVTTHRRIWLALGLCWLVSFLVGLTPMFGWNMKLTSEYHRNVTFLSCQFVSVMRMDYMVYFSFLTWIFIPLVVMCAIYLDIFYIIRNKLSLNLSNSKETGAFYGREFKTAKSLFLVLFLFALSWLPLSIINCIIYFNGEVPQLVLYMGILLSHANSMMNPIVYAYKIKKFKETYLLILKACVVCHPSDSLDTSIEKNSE
structure (smiles),measurement,setting,value
Nc1ncnc2c1ncn2[C@@H]1O[C@H](CO)[C@@H](O)[C@H]1O [Adenosine],IC50,"rA3R [1]; half-maximal response, cAMP inhibition, read-out: pIC50 rA3R (converted)",67.6 nM
same,Range rA3R,rA3R [1]; range of response as percentage of response to 10 μM forskolin,66.05 ± 5.4%
same,IC50,"[2]; Rattus norvegicus, read-out: IC50 inhibition of synaptic transmission",20000 ± 4300 nM
same,depression of the fEPSP,[2]; adenosine 30 µM,66.7 ± 6.7%
same,depression of the fEPSP,[2]; adenosine 30 µM in the presence of 2-Cl-IB-MECA 1 µM,67.5 ± 6.5%
same,β-arrestin2 recruitment by the A3R,[3],β-arrestin2 recruitment
same,outward current induced by adenosine,[4],40.6 ± 2.2 pA
same,Ki,rA3R [5],1290 nM
same,reduction of HR,[6],~ 66%
same,reduction of MAP,[6],~ 47%
same,MAP after injection,[6]; resting 86 ± 9 mm Hg,46 ± 4 mm Hg
same,HR after injection,[6]; resting 432 ± 21 BPM,147 ± 12 BPM
same,reduction of heart rate,frog heart,6.3 ± 0.6 BPM
same,heart rate after application,frog heart; before 41.8 ± 1.3 BPM,35.5 ± 1.3 BPM

# Source: PMC9293909 (Nature Communications, 2022)
